Measured values reported in ChEMBL document CHEMBL1137067, “Alpha-1-C-alkyl-1-deoxynojirimycin derivatives as potent and selective inhibitors of intestinal isomaltase: remarkable effect of the alkyl chain length on glycosidase inhibitory profile” (Bioorg Med Chem Lett, 2004).

Experiments:
Alpha-glucosidase = biological target: T1, Alpha-glucosidase (Oryza sativa Japonica Group, UniProt Q9LGC6); test: Inhibitory activity against alpha-Glucosidase from rice
T1 sequence (Q9LGC6 whole entry): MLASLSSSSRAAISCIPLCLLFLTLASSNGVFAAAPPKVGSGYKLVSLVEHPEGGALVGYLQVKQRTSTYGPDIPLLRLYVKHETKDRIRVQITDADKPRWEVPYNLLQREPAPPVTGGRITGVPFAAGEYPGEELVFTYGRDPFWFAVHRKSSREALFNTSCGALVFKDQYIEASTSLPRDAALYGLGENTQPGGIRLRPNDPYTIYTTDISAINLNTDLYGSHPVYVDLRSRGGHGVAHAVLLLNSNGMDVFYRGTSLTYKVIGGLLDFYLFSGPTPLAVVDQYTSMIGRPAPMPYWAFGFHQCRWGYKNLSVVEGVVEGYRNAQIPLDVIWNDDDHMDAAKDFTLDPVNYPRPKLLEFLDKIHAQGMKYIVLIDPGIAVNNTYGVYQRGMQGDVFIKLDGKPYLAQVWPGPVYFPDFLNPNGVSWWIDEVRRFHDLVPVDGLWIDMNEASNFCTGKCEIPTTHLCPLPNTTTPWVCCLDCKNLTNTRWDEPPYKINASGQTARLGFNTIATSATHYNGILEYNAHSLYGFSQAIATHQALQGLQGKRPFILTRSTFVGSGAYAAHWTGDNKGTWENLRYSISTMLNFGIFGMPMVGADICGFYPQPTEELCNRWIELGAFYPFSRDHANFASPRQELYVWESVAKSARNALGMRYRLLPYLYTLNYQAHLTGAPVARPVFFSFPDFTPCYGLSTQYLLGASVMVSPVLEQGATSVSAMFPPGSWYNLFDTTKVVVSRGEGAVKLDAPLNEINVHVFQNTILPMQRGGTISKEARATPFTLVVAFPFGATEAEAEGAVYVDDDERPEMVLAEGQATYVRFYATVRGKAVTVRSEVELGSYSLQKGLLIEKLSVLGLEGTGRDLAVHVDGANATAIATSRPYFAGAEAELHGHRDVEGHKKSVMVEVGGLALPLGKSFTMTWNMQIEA

[1] = biological target: T2, Sucrase-isomaltase, intestinal (Rattus norvegicus, UniProt P23739); test: Inhibition of rat intestinal maltase using disaccharide
Saccharomyces cerevisiae = test: Inhibitory activity against alpha-Glucosidase from Yeast at 1000 uM
[2] = Inhibitory activity against alpha-Glucosidase from Yeast; design: species or system Saccharomyces cerevisiae
[3] = biological target: T2, Sucrase-isomaltase, intestinal; test: Inhibition of rat intestinal sucrase using disaccharide
[4] = biological target: T2, Sucrase-isomaltase, intestinal; test: Inhibition of rat intestinal isomaltase using disaccharide
[5] = biological target: Beta-glucosidase A (Caldicellulosiruptor saccharolyticus) (UniProt P10482); test: Inhibitory activity against beta-Glucosidase from Caldocellum saccharolyticum at 1000 uM
Beta-glucosidase A = Beta-glucosidase A (Caldicellulosiruptor saccharolyticus, UniProt P10482); test: Inhibitory activity against beta-Glucosidase from Caldocellum saccharolyticum
Sequence of Beta-glucosidase A (P10482 whole entry): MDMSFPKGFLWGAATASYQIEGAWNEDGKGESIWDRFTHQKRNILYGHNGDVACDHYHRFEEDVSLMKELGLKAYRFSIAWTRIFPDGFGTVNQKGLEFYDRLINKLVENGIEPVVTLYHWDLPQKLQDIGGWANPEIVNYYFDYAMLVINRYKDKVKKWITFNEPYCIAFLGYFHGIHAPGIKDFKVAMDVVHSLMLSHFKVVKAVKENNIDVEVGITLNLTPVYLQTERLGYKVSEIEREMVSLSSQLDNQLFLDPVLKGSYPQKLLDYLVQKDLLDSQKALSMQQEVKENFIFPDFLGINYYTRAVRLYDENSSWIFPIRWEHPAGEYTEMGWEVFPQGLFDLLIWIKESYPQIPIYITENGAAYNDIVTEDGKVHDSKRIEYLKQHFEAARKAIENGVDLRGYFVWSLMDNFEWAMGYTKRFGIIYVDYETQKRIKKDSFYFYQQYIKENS

T2 sequence (P23739 1-1013 limits assumed): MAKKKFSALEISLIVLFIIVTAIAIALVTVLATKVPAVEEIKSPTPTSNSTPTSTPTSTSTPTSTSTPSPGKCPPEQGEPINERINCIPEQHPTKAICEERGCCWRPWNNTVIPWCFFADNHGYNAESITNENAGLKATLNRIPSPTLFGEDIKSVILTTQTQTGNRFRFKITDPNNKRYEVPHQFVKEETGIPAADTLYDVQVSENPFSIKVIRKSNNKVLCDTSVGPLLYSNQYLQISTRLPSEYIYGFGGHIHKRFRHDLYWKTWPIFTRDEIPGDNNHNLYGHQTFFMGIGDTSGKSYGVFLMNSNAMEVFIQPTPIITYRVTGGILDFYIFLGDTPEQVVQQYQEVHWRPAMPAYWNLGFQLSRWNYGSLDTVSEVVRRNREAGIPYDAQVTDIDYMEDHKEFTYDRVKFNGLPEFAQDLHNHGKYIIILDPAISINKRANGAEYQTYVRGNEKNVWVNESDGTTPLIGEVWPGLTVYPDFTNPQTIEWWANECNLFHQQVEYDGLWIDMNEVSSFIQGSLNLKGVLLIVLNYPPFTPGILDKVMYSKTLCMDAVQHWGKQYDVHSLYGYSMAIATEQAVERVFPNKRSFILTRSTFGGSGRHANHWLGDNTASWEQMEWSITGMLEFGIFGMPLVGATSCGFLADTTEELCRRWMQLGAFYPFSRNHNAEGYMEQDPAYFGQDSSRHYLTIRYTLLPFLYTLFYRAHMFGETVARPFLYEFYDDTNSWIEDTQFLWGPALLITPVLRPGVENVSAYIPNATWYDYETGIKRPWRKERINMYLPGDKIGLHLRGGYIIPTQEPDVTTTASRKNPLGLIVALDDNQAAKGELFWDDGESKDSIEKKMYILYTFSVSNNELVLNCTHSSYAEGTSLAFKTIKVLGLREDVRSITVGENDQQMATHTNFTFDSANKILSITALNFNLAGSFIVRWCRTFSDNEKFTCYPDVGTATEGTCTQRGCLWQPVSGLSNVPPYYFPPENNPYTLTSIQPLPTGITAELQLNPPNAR
T2 sequence (P23739 1014-1841 limits assumed): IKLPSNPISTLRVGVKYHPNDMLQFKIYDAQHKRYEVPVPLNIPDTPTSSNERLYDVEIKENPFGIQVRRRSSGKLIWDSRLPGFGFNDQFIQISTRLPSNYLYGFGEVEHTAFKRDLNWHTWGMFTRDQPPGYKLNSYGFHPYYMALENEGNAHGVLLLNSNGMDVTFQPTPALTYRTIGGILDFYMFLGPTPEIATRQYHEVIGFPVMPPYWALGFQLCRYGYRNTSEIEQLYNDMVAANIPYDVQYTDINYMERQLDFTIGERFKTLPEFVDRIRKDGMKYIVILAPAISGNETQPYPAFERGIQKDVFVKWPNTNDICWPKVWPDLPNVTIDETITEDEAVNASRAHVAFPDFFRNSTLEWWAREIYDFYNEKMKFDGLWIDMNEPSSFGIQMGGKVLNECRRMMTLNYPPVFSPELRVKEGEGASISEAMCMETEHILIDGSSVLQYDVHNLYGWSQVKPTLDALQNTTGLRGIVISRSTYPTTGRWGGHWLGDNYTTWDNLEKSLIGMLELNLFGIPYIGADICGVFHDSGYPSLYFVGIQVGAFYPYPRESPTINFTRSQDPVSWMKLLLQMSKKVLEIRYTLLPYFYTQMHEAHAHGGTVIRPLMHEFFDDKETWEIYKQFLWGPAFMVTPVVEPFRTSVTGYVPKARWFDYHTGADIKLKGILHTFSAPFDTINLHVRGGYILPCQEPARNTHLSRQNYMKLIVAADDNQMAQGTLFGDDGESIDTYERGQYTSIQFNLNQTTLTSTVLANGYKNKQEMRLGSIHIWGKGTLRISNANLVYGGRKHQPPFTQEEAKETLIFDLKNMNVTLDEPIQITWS
Sequence of Beta-glucosidase A (Caldicellulosiruptor saccharolyticus) (P10482 whole entry): as the sequence (P10482 whole entry) above

| IC50 (Alpha-glucosidase) | IC50 [1] | inhibition (Saccharomyces cerevisiae) | IC50 [2] | IC50 [3] | IC50 [4] | inhibition [5] | IC50 (Beta-glucosidase A) | SMILES |
| --- | --- | --- | --- | --- | --- | --- | --- | --- |
| 800 nM | 3500 nM | – | 52000 nM | 1200 nM | 310 nM | < 50% | – | CCCCCCC1NC(CO)C(O)C(O)C1O (stereo not given) |
| 1500 nM | 4000 nM | – | 56000 nM | 2500 nM | 3.5 nM | – | 80000 nM | CCCCCCCCCC1NC(CO)C(O)C(O)C1O (stereo not given) |
| 80 nM | 1500 nM | < 50% | – | 660 nM | 280 nM | – | 160000 nM | CCCCCCCCN1CC(O)C(O)C(O)C1CO (stereo not given) |
| 61000 nM | 210000 nM | < 50% | – | 155000 nM | 115000 nM | < 50% | – | CCCC[C@@H]1N[C@@H](CO)[C@@H](O)[C@H](O)[C@@H]1O |
| 2000 nM | 7000 nM | < 50% | – | 2000 nM | 1400 nM | – | 100000 nM | CCCN1CC(O)C(O)C(O)C1CO (stereo not given) |
| 420 nM | – | < 50% | – | – | – | < 50% | – | CCCCN1C[C@H](O)[C@@H](O)[C@H](O)[C@H]1CO |
| – | – | – | 190000 nM | – | – | – | – | OC[C@H]1NC[C@H](O)[C@@H](O)[C@@H]1O [DUVOGLUSTAT] |
| 700 nM | 3700 nM | < 50% | – | 450 nM | 450 nM | – | 450000 nM | CCCCCCN1CC(O)C(O)C(O)C1CO (stereo not given) |
| 11000 nM | 12000 nM | – | 465000 nM | 3600 nM | 150 nM | < 50% | – | CCCC[C@H]1N[C@@H](CO)[C@@H](O)[C@H](O)[C@@H]1O |
| 590 nM | 1900 nM | – | 25000 nM | 1500 nM | 90 nM | – | 110000 nM | CCCCCCCCC1NC(CO)C(O)C(O)C1O (stereo not given) |

| SMILES | IC50 (Alpha-glucosidase) | IC50 [1] | inhibition (Saccharomyces cerevisiae) | IC50 [2] | IC50 [3] | IC50 [4] | inhibition [5] | IC50 (Beta-glucosidase A) |
| --- | --- | --- | --- | --- | --- | --- | --- | --- |
| CCCCCCCCCN1CC(O)C(O)C(O)C1CO (stereo not given) | 80 nM | 1300 nM | < 50% | – | – | – | – | – |
| CCCC1NC(CO)C(O)C(O)C1O (stereo not given) | 15000 nM | 43000 nM | – | 630000 nM | 39000 nM | 530 nM | – | – |
